Experimental data: PubChem BioAssay (NCI)
Values joined by “and” are separate entries in the source; they are usually repeats but may differ in a detail not shown here. Equal entries are not always repeated.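 Method: 48-hour compound exposure of cells in 96-well plates, five concentrations, linear interpolation of endpoints. GI50 = concentration required for 50% inhibition of growth. Definition used: TGI = concentration required for complete inhibition of growth.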

Key:
Assay in all cases: inhibition of tumour cell growth, NCI panel, 48 h
A498 renal = test system: A498 renal
CCRF-CEM leukemia = test system: CCRF-CEM leukemia
DU-145 prostate = test system: DU-145 prostate
HCC-2998 colon = test system: HCC-2998 colon
LOX IMVI melanoma = test system: LOX IMVI melanoma
SK-MEL-28 melanoma = test system: SK-MEL-28 melanoma
SW-620 colon = test system: SW-620 colon
SR leukemia = test system: SR leukemia

Structure (SMILES)	TGI (A498 renal)	TGI (CCRF-CEM leukemia) [µM]	TGI (DU-145 prostate) [µM]	TGI (HCC-2998 colon) [µM]	TGI (LOX IMVI melanoma) [µM]	TGI (SK-MEL-28 melanoma) [µM]	TGI (SW-620 colon) [µM]	GI50 (A498 renal)	GI50 (CCRF-CEM leukemia)	GI50 (DU-145 prostate)	GI50 (HCC-2998 colon)	GI50 (LOX IMVI melanoma)	GI50 (SK-MEL-28 melanoma)	GI50 (SR leukemia)	TGI (SR leukemia) [µM]	GI50 (SW-620 colon)
COc1ccccc1/C=C/c1cnccn1	> 10 µM	> 10	> 10	> 10	> 10	> 10	> 10	–	–	–	–	–	–	–	–	–
Nc1nc(Nc2ccccc2)c2ncn(Cc3cc4c(cc3Br)OCO4)c2n1	29.7 µM	–	13.7	> 32.7	> 100	36.2	> 100	0.0546 µM	0.0431 µM	0.184 µM	0.205 µM	0.0563 µM	0.524 µM	0.0371 µM	> 100	0.0471 µM
O=C(Nc1cccc(Cl)c1)c1cc2ccccc2cc1O	4.34 µM and 4.64 µM	> 100	> 100	> 100	> 100	> 100	> 100	0.742 µM and 1.08 µM	5.58 µM and 8.61 µM	3.07 µM and 2.38 µM	3.9 µM and 3.39 µM	3.73 µM and 1.75 µM	2.69 µM and 0.554 µM	3.9 µM and 3.79 µM	> 100	3.14 µM and 3.1 µM
Nc1c(C(=O)N/N=C/c2ccc(-c3ccc(Cl)cc3)o2)cnn1-c1ccnc2c(C(F)(F)F)cccc12	> 100 µM	–	> 100	> 100	> 100	> 100	> 100	> 100 µM	–	> 100 µM	> 100 µM	> 100 µM	> 100 µM	–	–	> 100 µM
CCCCCc1c(C)[nH]c(/C=C2\N=C(c3ccc[nH]3)C=C2CC)c1C	0.267 µM	–	1.19	0.174	–	0.144	0.17	< 0.0228 µM	–	< 0.01 µM	< 0.01 µM	< 0.01 µM	0.0296 µM	–	–	< 0.01 µM
CC(=O)Oc1ccccc1C(=O)N=C1[Se]CCN1C(=O)c1ccccc1OC(C)=O	2.4 µM	> 100	2.18	5.79	–	3.25	6.09	1.02 µM	0.556 µM	0.61 µM	2.15 µM	–	0.492 µM	1.51 µM	> 100	1.52 µM
CC(C)c1ccccc1S(=O)c1ccccc1C(C)(C)O (configuration not stated)	40.8 µM	> 100	> 100	–	> 100	> 100	> 100	–	–	–	–	–	–	–	> 100	–
Cc1c[n+](Cc2ccc3ccccc3c2)cn1Cc1ccc2ccccc2c1	4.29 µM	5.71	9.61	2.83	2.7	3.7	3.74	0.954 µM	2.45 µM	2.55 µM	1.34 µM	1.34 µM	1.8 µM	1.46 µM	3.58	1.64 µM
COc1cc(/C=C2\C(=O)Nc3ccc(F)cc32)cc(OC)c1OC	> 100 µM	> 100	> 100	–	> 100	> 100	> 100	54 µM	23.3 µM	18.4 µM	–	20.5 µM	56.7 µM	–	–	63.7 µM
Cc1cn2c(/C=C3/C(=O)Nc4ccccc43)c(-c3ccc(Cl)cc3)nc2s1	23.6 µM	> 50	–	–	12	–	38.2	10.6 µM	17.6 µM	–	–	5.84 µM	–	11.5 µM	39.8	15.1 µM
COC(COC(=O)N1CCN(C=O)CC1)C1=C(N2CC2)C(=O)C(C)=C(N2CC2)C1=O (configuration not stated)	4.02 µM	4.77	4.01	38.1	0.613	3.33	1.59	–	–	–	–	–	–	–	< 0.011	–
O=C(N/N=C\c1cc(Br)ccc1O)c1ccncc1	77.3 µM	> 100	> 100	> 100	94.7	> 100	> 100	5.82 µM	0.423 µM	2.53 µM	1.81 µM	1.07 µM	3.52 µM	2.45 µM	> 100	2.66 µM
COc1ccc(-n2cc(-c3ccc(Cl)c(Cl)c3)nc2SCc2cccc(C#N)c2)cc1	44.5 µM	> 100	> 100	> 100	> 100	> 100	> 100	12.6 µM	> 100 µM	> 100 µM	79.1 µM	13.9 µM	20.2 µM	> 100 µM	> 100	60 µM
O=C1/C(=C\c2cccn2Cc2ccccc2)c2ccccc2N1c1c(Cl)cccc1Cl	> 100 µM	> 100	> 100	> 100	> 100	> 100	> 100	> 100 µM	> 100 µM	> 100 µM	1.83 µM	> 100 µM	> 100 µM	> 73.4 µM	> 100	> 100 µM
NC(=O)C(=CNc1nc(-c2ccc(Cl)c(Cl)c2)cs1)C(N)=O	> 100 µM	> 100	> 100	> 100	> 100	> 100	> 100	> 100 µM	20.4 µM	> 100 µM	> 100 µM	> 100 µM	> 100 µM	38.7 µM	> 100	> 100 µM
OCCCCC#Cc1ccccc1C#Cc1cccc(O)c1	39.4 µM	48.6	40.9	35.5	30.9	28.2	33.3	18.5 µM	18.8 µM	17.4 µM	19.1 µM	16.7 µM	14.2 µM	–	–	17.5 µM
O=C(O)c1cccc(OCCO)c1	> 100 µM	–	> 100	–	> 100	> 100	> 100	–	–	–	–	–	–	–	> 100	–
O=C(Nc1cccc(Cl)c1Cl)c1cccc(NC2=C(Cl)C(=O)N(Cc3ccccc3)C2=O)c1	> 100 µM	> 100	> 100	–	> 100	> 100	> 100	36.1 µM	14 µM	21.2 µM	–	13.1 µM	> 100 µM	4.16 µM	23.5	20.1 µM
COC(=O)[C@@H](NC(=O)[C@@H](OC)[C@@H]1Cc2cc3cc(OC4CC(OC5CC(O)C(O)C(C)O5)C(O)C(C)O4)c(C)c(O)c3c(O)c2C(=O)[C@H]1OC1CC(OC2CC(OC3CC(C)(O)C(O)C(C)O3)C(O)C(C)O2)C(O)C(C)O1)C(C)C (some centres not stated)	0.333 µM	> 32.5	> 32.5	> 32.5	–	6.04	> 32.5	0.0869 µM	0.122 µM	0.158 µM	0.206 µM	–	0.0971 µM	0.0174 µM	5.08	0.121 µM

Structure (SMILES)	TGI (A498 renal)	TGI (CCRF-CEM leukemia) [µM]	TGI (DU-145 prostate) [µM]	TGI (HCC-2998 colon) [µM]	TGI (LOX IMVI melanoma) [µM]	TGI (SK-MEL-28 melanoma) [µM]	TGI (SW-620 colon) [µM]	GI50 (A498 renal)	GI50 (CCRF-CEM leukemia)	GI50 (DU-145 prostate)	GI50 (HCC-2998 colon)	GI50 (LOX IMVI melanoma)	GI50 (SK-MEL-28 melanoma)	GI50 (SR leukemia)	TGI (SR leukemia) [µM]	GI50 (SW-620 colon)
C#C[C@]1(O)CC[C@H]2[C@@H]3CC=C4c5sc(Nc6ccccc6)nc5CC[C@]4(C)[C@H]3CC[C@@]21C	3.66 µM	11.3	4.71	4.22	–	2.75	5.85	1.34 µM	1.1 µM	1.87 µM	1.91 µM	–	0.692 µM	0.623 µM	> 100	2.06 µM
COc1cc(NC(C)CCCN)c2nccc(C)c2c1OC (configuration not stated)	30 µM	48	28.6	17.8	28.7	29.6	15	14.4 µM	15.4 µM	15.3 µM	4.85 µM	14.7 µM	14.6 µM	20.8 µM	60.7	3.54 µM
CSC1(CC(=O)N(C)C)C(=O)Nc2ccccc21 (configuration not stated)	> 100 µM	–	> 100	> 100	> 100	> 100	> 100	–	–	–	–	–	–	–	> 100	–
COc1cc2c(cc1OC)C13CCN4CC5=CCOC6CC(=O)N2C1C6C5CC43O (configuration not stated)	> 100 µM	> 100	> 100	> 100	> 100	> 100	> 100	–	–	–	–	–	–	–	–	–
O/N=C\c1c(O)ccc2ccccc12	> 100 µM	> 100	–	> 100	> 100	> 100	> 100	–	–	–	–	–	–	–	82.1	–
Cc1c(C2Nc3ccccc3C2C)[nH]c2ccccc12 (configuration not stated)	23.1 µM	46.6	38.7	26.6	–	26.2	32.7	10.7 µM	0.801 µM	14.5 µM	12.6 µM	–	12 µM	0.738 µM	26.3	2.33 µM
O=C(O)c1ccccc1-c1ccccc1C(=O)Nc1ccc2c(c1)Cc1cc(F)ccc1-2	46 µM	–	> 100	33.8	77.7	> 100	> 100	–	–	–	–	–	–	–	48.9	–
O=C(O)c1c(-c2nccc3ccccc23)[nH]c(-c2ccccc2)c1S(=O)(=O)O	> 100 µM	> 100	> 100	–	> 100	> 100	> 100	–	–	–	–	–	–	–	> 100	–
O=C(CCCN1CC=C(n2c(=O)[nH]c3ccccc32)CC1)c1ccc(F)cc1	–	> 100	> 100	> 100	> 100	> 100	> 100	–	35.5 µM	68.1 µM	48 µM	26 µM	52.6 µM	29.6 µM	89.1	53.5 µM
CC(=O)Oc1ccccc1C(=O)N=C1[Se]CCCN1C(=O)c1ccccc1OC(C)=O	–	–	3.26	15.6	4.37	5.74	11.4	–	–	1.82 µM	3.42 µM	1.7 µM	2.36 µM	2.44 µM	9.17	3.58 µM
COc1ccc(C2C(C#N)=C(N)OC3=C2COc2ccc(F)cc23)cc1OC (configuration not stated)	59.1 µM	> 100	> 100	–	24.1	> 100	> 100	28.3 µM	47.5 µM	28.2 µM	–	11.3 µM	51.8 µM	9.09 µM	> 100	44.4 µM
CCN(CC)CCNCC(=O)Oc1ccc(/C=C/C(=O)CC(=O)/C=C/c2ccc(OC(=O)CNCCN(CC)CC)c(OC)c2)cc1OC	11.6 µM	–	9.56	4.36	4.71	46.2	9.93	3.34 µM	–	2.74 µM	2.1 µM	2.13 µM	4.16 µM	3.14 µM	> 100	3.02 µM
O=C(O)Cc1c(O)ccc2ccccc12	> 100 µM	–	> 100	–	> 100	> 100	> 100	–	–	–	–	–	–	–	> 100	–
CN(C)Cc1c[nH]c2c1C(=O)c1c(c(O)c3ccccc3c1O)C2=O	25.3 µM	20.7	11.5	21.9	19.5	58	14.6	12.1 µM	3.14 µM	0.923 µM	6.61 µM	6.32 µM	27.4 µM	–	–	3.37 µM
NC(N)=N/N=C/c1cc(Cl)cc(Cl)c1O	> 100 µM	> 100	> 100	32	> 100	> 100	> 100	–	–	–	–	–	–	–	–	–
N#CC1Nc2ccccc2[C@@H](O)C1O (some centres not stated)	–	> 100	> 100	> 100	> 100	> 100	> 100	–	–	–	–	–	–	–	> 100	–
O=C1c2ccn(CCCCNC(CO)(CO)CO)c2C(=O)c2c1c(O)c1ccccc1c2O	46.8 µM	–	4.69	0.515	–	> 43.6	13	16.5 µM	–	1.89 µM	0.17 µM	–	6.44 µM	2.42 µM	5.76	2.02 µM
c1ccc2c3ccn4cc5c(cc4c-3nc2c1)CCCC5	24.1 µM	> 100	10.5	15	–	11.7	9.85	11.6 µM	3.52 µM	2.31 µM	4.3 µM	–	2.38 µM	–	–	–
COc1ccc(-c2cc(-c3cccn3C)c(C#N)c(N)n2)cc1OC	> 100 µM	–	> 100	> 100	> 100	> 100	> 100	82.8 µM	–	91.6 µM	> 100 µM	> 100 µM	> 100 µM	–	–	> 100 µM
